Test results from patent US20210121542A1, “COMPOSITION FOR […] OF PROTEIN TH[…] ORAL, SUBLINGUAL AND BUCCAL ROUTE” (Prime Bio, Inc., priority 2019, published 2021).

System: trypsin
Type: in vitro ADME

bovine serum albumin [BSA]
% Relative Protection (compared with BSA + Trypsin): 0%
